These results are taken from US8609836B2, “4-aryl-2-anilino-pyrimidines” (Janssen Pharmaceutica NV, priority 2008, dated 2013).

Bounds are passed on as bounds.

In one assay the target is PLK4 (h) (Homo sapiens, UniProt O00444). Briefly: PLK-4 human kinase inhibition, scintillation proximity assay (SPA). In kind it is biochemical. The following applies: read-out: PLK4 pIC50 (converted). (In general: SPA uses beads or plates that emit light when radiolabelled molecules are held near them.)
The target in a further assay is PLK3 (h) (Homo sapiens, UniProt Q9H4B4). The assay can be described thus: PLK3 human kinase inhibition, SPA. The settings on record: read-out: PLK3 pIC50 (converted). In kind it is biochemical. The essentials: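 SPA: PLK3 (h) at 30 μg/ml with 2 μM biotinylated peptide, 0.1 μM ATP plus 2 nM [γ-33P]ATP in 50 mM Hepes pH 8.0, 2 mM MnCl2 and 1 mM DTT. Incubated 20 min at room temperature, then stopped with EDTA and streptavidin PVT beads. Scintillation imaged on Leadseeker.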

The subject of the next assay is HCT-116. Briefly: Cellular proliferation assay (Alamar blue), HCT-116. It is filed as cell-based. The following applies: Homo sapiens, 10% FCS, 72 hours with compound, Alamar blue 4 h. The method, boiled down: (§1)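 Proliferation in 10% FCS over a 72 h compound treatment, read as viable cell number by Alamar blue fluorescence and calculated against untreated control cells. Dye time varied by line: 6 h U87-MG, 4 h HCT-116, 24 h A2780 and MDA-MB-231.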

The subject of another assay is A2780. The assay can be described thus: Cellular proliferation assay (Alamar blue), A2780. In kind it is cell-based. The settings on record: Homo sapiens, 10% FCS, 72 hours with compound, Alamar blue 24 h, read-out: A2780 (cellular proliferation assay, Table 4) (converted). The essentials:
as §1
(In general: The colour change of resazurin is a common sign of viable cells or microbes.)

In a further assay the target is PLK2 (h) (Homo sapiens, UniProt Q9NYY3). The assay can be described thus: PLK2 human kinase inhibition, SPA. In kind it is biochemical. The following applies: read-out: PLK2 pIC50 (converted). The essentials: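 SPA read on Leadseeker: PLK2 (30 μg/ml) with 2 μM biotinylated peptide, 0.1 μM ATP plus 2 nM [γ-33P]ATP in 50 mM Hepes pH 8.0, 2 mM MnCl2, 1 mM DTT. Reaction ran 20 min at room temperature, then EDTA stop and streptavidin PVT beads.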

The subject of another assay is MDA-MB-231. The assay can be described thus: Cellular proliferation assay (Alamar blue), MDA-MB-231. It is filed as cell-based. The settings on record: Homo sapiens, 10% FCS, 72 hours with compound, Alamar blue 24 h, read-out: MDA/MB231 (cellular proliferation assay, Table 4) (converted). The method, boiled down:
as §1

The target of a further assay is AuroraB (h) (Homo sapiens, UniProt Q96GD4). Briefly: Aurora-B human kinase inhibition, SPA. It is filed as biochemical. The following applies: read-out: AuroraB pIC50 (converted). The method, boiled down: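 SPA with biotinylated peptide (3 μM) in 60 mM Hepes pH 7.5, Mg/Mn 3 mM each, 0.5 μM ATP plus [γ-33P]ATP, AuroraB at 0.5 μg/ml. The reaction runs 60 min at room temperature and is stopped with EDTA and streptavidin PVT beads. 33P-substrate is read by scintillation imaging.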

Another assay has as its target CDK4/CyclinD1 (h) (Homo sapiens, UniProt P11802). Briefly: CDK4/CyclinD1 human kinase inhibition, SPA with GST-pRb substrate. It is filed as biochemical. The settings on record: read-out: CDK4 pIC50 (converted). The essentials:
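Human CDK4/CyclinD1 (2.5 μg/ml) was incubated with 40 μg/ml GST-pRb and 2 nM [γ-33P]ATP in 50 mM Hepes pH 7.5, 8 mM NaF, 20 mM MgCl2, 1 mM DTT for 60 min at room temperature. EDTA stop with glutathione SPA beads; phosphorylation read by scintillation counting.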

Another assay addresses GSK3β (h) (Homo sapiens, UniProt P49841). Briefly: GSK-3β human kinase inhibition, SPA. The following applies: read-out: GSK3b pIC50 (converted). In kind it is biochemical. The method, boiled down:
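Scintillation proximity assay: GSK3β (1 μg/ml) with 1 μM biotinylated peptide, 1 μM ATP plus [γ-33P]ATP in Tris pH 7.4, MgCl2, DTT. 60 min at room temperature, stopped with EDTA and streptavidin PVT beads; phosphorylation read by Leadseeker imaging.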

Chain of PLK3 (h) (Q9H4B4 whole entry): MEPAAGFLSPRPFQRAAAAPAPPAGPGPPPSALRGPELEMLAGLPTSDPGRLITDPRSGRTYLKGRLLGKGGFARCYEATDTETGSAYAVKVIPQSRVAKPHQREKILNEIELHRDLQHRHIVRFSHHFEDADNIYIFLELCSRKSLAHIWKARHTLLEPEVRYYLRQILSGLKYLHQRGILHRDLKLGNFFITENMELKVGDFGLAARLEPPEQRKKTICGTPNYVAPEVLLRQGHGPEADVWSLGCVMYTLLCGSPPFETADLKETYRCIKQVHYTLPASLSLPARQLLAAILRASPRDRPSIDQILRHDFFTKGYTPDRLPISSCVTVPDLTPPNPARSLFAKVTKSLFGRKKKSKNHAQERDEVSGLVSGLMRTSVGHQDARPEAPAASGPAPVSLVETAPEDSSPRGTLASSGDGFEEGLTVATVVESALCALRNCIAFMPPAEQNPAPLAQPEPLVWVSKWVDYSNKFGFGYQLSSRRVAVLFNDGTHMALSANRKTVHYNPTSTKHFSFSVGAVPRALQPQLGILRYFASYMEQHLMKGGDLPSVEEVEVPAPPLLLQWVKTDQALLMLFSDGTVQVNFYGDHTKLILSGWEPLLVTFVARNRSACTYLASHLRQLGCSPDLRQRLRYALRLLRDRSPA
Chain of AuroraB (h) (Q96GD4 whole entry): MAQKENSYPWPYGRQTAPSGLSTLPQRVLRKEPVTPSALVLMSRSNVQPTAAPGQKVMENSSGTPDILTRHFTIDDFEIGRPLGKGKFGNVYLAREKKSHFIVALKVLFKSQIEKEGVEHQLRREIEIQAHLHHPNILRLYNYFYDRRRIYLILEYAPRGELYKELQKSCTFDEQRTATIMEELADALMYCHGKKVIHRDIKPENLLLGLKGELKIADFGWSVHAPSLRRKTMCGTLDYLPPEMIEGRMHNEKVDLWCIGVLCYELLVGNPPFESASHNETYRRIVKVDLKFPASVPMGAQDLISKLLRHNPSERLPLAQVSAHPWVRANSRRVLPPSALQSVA
Chain of PLK4 (h) (O00444 whole entry): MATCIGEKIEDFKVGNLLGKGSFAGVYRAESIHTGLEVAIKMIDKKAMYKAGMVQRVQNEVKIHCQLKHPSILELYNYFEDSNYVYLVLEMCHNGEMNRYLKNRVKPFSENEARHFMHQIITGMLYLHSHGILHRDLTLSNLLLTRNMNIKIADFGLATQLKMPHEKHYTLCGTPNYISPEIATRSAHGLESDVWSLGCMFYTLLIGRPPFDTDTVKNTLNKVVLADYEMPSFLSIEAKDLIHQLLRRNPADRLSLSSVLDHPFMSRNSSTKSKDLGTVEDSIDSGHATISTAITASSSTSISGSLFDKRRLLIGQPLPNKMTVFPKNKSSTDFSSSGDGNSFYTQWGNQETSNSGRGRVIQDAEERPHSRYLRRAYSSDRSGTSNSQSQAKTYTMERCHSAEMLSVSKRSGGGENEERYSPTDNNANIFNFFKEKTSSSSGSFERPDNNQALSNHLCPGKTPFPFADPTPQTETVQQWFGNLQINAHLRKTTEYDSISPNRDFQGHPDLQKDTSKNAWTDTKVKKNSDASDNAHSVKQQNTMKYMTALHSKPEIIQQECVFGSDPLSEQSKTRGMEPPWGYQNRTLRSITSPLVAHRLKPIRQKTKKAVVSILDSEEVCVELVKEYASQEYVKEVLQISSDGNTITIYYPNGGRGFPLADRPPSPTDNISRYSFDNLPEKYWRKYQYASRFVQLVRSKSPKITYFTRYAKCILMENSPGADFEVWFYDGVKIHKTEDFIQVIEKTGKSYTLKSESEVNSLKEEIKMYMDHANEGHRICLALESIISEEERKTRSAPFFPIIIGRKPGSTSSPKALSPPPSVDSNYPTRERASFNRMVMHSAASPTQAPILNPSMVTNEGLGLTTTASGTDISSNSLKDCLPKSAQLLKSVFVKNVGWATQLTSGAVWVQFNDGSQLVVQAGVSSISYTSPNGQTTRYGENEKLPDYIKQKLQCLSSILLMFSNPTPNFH
Chain of CDK4/CyclinD1 (h) (P11802 whole entry): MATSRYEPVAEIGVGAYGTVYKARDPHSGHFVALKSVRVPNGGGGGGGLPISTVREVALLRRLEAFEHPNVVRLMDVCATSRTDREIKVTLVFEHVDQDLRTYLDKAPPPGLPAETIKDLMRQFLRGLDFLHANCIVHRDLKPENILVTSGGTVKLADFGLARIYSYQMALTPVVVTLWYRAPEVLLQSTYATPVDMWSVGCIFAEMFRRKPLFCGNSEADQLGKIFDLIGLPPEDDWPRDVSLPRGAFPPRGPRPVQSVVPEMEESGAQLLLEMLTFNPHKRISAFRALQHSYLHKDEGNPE
Chain of CDK4/CyclinD1 (h) (P24385 whole entry partner): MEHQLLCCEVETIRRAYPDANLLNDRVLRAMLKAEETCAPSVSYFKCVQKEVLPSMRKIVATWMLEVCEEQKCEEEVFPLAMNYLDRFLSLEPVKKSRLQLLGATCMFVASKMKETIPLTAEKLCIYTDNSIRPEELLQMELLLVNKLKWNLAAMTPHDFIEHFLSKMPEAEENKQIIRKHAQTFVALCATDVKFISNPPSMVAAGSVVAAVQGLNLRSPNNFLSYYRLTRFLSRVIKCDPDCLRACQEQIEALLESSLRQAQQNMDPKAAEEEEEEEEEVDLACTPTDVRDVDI
Chain of PLK2 (h) (Q9NYY3 whole entry): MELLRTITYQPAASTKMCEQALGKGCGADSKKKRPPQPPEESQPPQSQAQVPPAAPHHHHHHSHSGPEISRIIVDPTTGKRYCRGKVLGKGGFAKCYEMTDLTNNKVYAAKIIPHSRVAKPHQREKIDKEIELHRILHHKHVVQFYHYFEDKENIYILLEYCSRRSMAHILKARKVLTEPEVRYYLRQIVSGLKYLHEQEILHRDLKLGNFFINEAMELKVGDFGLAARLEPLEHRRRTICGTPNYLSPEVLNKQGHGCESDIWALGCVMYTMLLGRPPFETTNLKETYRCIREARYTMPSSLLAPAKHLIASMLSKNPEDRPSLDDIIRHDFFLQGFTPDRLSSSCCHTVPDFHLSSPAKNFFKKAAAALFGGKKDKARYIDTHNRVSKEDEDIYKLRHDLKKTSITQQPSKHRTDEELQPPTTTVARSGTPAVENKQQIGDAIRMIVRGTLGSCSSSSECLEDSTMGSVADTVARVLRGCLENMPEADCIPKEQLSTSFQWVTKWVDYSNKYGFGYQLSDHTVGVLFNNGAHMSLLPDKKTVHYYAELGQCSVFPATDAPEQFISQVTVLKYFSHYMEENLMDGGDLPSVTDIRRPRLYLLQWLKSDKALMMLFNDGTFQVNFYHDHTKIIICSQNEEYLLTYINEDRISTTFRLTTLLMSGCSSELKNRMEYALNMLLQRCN
Chain of GSK3β (h) (P49841 whole entry): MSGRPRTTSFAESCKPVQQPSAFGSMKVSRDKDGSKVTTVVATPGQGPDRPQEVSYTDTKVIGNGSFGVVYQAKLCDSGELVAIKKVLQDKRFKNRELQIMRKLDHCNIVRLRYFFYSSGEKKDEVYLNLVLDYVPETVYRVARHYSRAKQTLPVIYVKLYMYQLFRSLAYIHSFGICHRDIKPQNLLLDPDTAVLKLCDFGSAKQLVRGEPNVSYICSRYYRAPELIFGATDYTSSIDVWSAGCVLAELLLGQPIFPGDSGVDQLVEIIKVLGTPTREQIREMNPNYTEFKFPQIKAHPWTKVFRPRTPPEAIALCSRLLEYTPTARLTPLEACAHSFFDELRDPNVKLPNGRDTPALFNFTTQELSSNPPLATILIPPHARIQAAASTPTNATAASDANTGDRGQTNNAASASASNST

On to `CN(C)C(=O)c1ccc2cc1CN1CCC[C@H]1C(=O)NCc1cccc(c1)-c1ccnc(n1)N2` [Compound 24], for which the IC50 on PLK4 (h) was 0.0776 µM; at PLK3 (h), over 10 µM; in the assay on HCT-116 it was 3.8 µM; in the assay with A2780, 5.89 µM; on PLK2 (h), over 10 µM; in the assay with MDA-MB-231, over 10 µM. In addition, the figures for the IC50 on AuroraB (h), at CDK4/CyclinD1 (h) and on GSK3β (h) were over 10 µM, 4.27 µM and 0.0871 µM, respectively.

Regarding `O=C1NCCCc2cc(ccn2)-c2ccnc(n2)Nc2cccc(c2)CN[C@H]1CO` [Compound 19], the IC50 at PLK4 (h) was 1.2 µM; on PLK3 (h), over 10 µM; in the assay on HCT-116 it was 0.724 µM; with A2780 it was 1.45 µM; at PLK2 (h) it was over 10 µM; with MDA-MB-231, 6.17 µM. Further, the IC50 on AuroraB (h) is over 10 µM; at CDK4/CyclinD1 (h), 1.26 µM; at GSK3β (h) it was 0.0372 µM.

In the case of `CN1CCCNC(=O)[C@@H]2CCCN2Cc2cccc(c2)Nc2nccc(n2)-c2ccc(cc2)C1` [Compound 173], the IC50 at PLK4 (h) was 6.17 µM; at PLK3 (h), over 10 µM; in the assay on HCT-116, over 10 µM; in the assay on A2780, over 10 µM; at PLK2 (h), over 10 µM; in the assay with MDA-MB-231, over 10 µM. For the same compound, the IC50 on AuroraB (h), at CDK4/CyclinD1 (h) and at GSK3β (h) was over 10 µM throughout.

Consider `CN1CCCNC(=O)[C@H](CO)NCc2cccc(c2)Nc2nccc(n2)-c2ccc(cc2)C1` [Compound 113], for which the IC50 at PLK4 (h) was 1.17 µM; at PLK3 (h), over 10 µM; in the assay on HCT-116, over 10 µM; in the assay with A2780, over 10 µM; at PLK2 (h), over 10 µM; in the assay on MDA-MB-231, over 10 µM. In addition, the IC50 on AuroraB (h), at CDK4/CyclinD1 (h) and on GSK3β (h) was over 10 µM each time.

In the case of `COc1ccc2cc1CN(C)CCNC(=O)CN1CCN(CC1)Cc1cccc(c1)Nc1nccc-2n1` [Compound 147], the IC50 at PLK4 (h), on PLK3 (h), in the assay on HCT-116, in the assay on A2780, at PLK2 (h) and in the assay on MDA-MB-231 was over 10 µM in each case. For the same compound, the IC50 at AuroraB (h), at CDK4/CyclinD1 (h) and on GSK3β (h) was over 10 µM in each case.

Take `COc1ccc2cc1CN(C)CCNC(=O)CN1CCN(CC1)Cc1cc(cc(N3CCOCC3)c1)Nc1nccc-2n1` [Compound 145]: the IC50 on PLK4 (h) is 4.37 µM; at PLK3 (h) it was over 10 µM; with HCT-116 it was over 10 µM; in the assay with A2780, over 10 µM; at PLK2 (h) it was over 10 µM; with MDA-MB-231, over 10 µM. The IC50 at AuroraB (h), on CDK4/CyclinD1 (h) and at GSK3β (h) was over 10 µM in each case.

As for `O=C1NCCCNCc2ccc(cc2)-c2ccnc(n2)Nc2ccc(N3CCOCC3)c(c2)CN2C[C@H](O)C[C@@H]12` [Compound 169], the IC50 is 3.89 µM on PLK4 (h); over 10 µM on PLK3 (h); over 10 µM in the assay with HCT-116; over 10 µM in the assay on A2780; over 10 µM on PLK2 (h); over 10 µM in the assay with MDA-MB-231. Further, the IC50 at AuroraB (h), at CDK4/CyclinD1 (h) and at GSK3β (h) was over 10 µM throughout.

As to `COc1ccc2cc1CN(C)CCCNC(=O)C1CCN(CC1)Cc1cc(cc(NC(C)C)c1)Nc1nccc-2n1` [Compound 70], the IC50 was 1.58 µM at PLK4 (h); over 10 µM at PLK3 (h); over 10 µM in the assay with HCT-116; over 10 µM in the assay on A2780; over 10 µM on PLK2 (h); over 10 µM in the assay with MDA-MB-231. The results for the IC50 at AuroraB (h), on CDK4/CyclinD1 (h) and on GSK3β (h) were 6.03 µM, over 10 µM and over 10 µM, respectively.

Regarding `COc1ccc2cc1CN(C)CCNC(=O)C1CCN(CC1)Cc1cccc(c1)Nc1nccc-2n1` [Compound 83], the IC50 on PLK4 (h), on PLK3 (h), with HCT-116, in the assay with A2780, at PLK2 (h) and in the assay on MDA-MB-231 was over 10 µM in each case. Also, the IC50 at AuroraB (h), on CDK4/CyclinD1 (h) and at GSK3β (h) was over 10 µM throughout.

Consider `COc1ccc2cc1CN(C)CCNC(=O)C1CCN(CC1)Cc1cc(cc(NC(C)C)c1)Nc1nccc-2n1` [Compound 75], for which the IC50 on PLK4 (h) was 3.09 µM; at PLK3 (h), over 10 µM; in the assay with HCT-116 it was 7.24 µM; in the assay on A2780, over 10 µM; at PLK2 (h) it was over 10 µM; with MDA-MB-231, over 10 µM. The IC50 on AuroraB (h), at CDK4/CyclinD1 (h) and at GSK3β (h) was over 10 µM throughout.

Regarding `C[C@@H]1NCc2cc(ccc2N2CCOCC2)Nc2nccc(n2)-c2cccc(c2)OCCCNC1=O` [Compound 88], the IC50 on PLK4 (h) was 0.447 µM; at PLK3 (h) it was over 10 µM; in the assay on HCT-116, 1.62 µM; in the assay on A2780, 3.39 µM; on PLK2 (h), over 10 µM; with MDA-MB-231 it was 6.76 µM. For the same compound, the figures for the IC50 at AuroraB (h), on CDK4/CyclinD1 (h) and at GSK3β (h) were 6.46 µM, 1.41 µM and 0.195 µM, respectively.

`O=C1NCc2cccc(c2)-c2ccnc(n2)Nc2cc(CN3CCOCC3)cc(c2)CN2CCC[C@@H]12` [Compound 22]: the IC50 at PLK4 (h) is 0.0692 µM; on PLK3 (h) it was over 10 µM; with HCT-116 it was 0.174 µM; in the assay with A2780, 0.437 µM; on PLK2 (h) it was over 10 µM; with MDA-MB-231 it was 1.7 µM. Also, the IC50 on AuroraB (h) is 10.2 µM; on CDK4/CyclinD1 (h) it was 2.75 µM; on GSK3β (h) it was 0.0309 µM.

For the compound `O=C1NCCCOc2cccc(c2)-c2ccnc(n2)Nc2ccc(N3CCOCC3)c(c2)CN2CCC[C@@H]12` [Compound 96], the IC50 was 0.398 µM at PLK4 (h); over 10 µM on PLK3 (h); 5.37 µM in the assay on HCT-116; 6.46 µM with A2780; over 10 µM on PLK2 (h); over 10 µM with MDA-MB-231. The values for the IC50 at AuroraB (h), at CDK4/CyclinD1 (h) and on GSK3β (h) were over 10 µM, over 10 µM and 2.82 µM, respectively.

For the compound `CN(C)CCNC(=O)c1ccc2cc1CN1CCC[C@H]1C(=O)NCc1cccc(c1)-c1ccnc(n1)N2` [Compound 42], the IC50 is 0.355 µM on PLK4 (h); over 3.02 µM at PLK3 (h); 0.955 µM with HCT-116; 1.45 µM in the assay with A2780; over 10 µM at PLK2 (h); 1.91 µM in the assay with MDA-MB-231. In addition, the IC50 was over 10 µM at AuroraB (h), 0.457 µM at CDK4/CyclinD1 (h) and 0.331 µM on GSK3β (h).

Take `CN1CCNC(=O)C2CCN(CC2)Cc2cccc(c2)Nc2nccc(n2)-c2ccc(cc2)C1` [Compound 82]: the IC50 at PLK4 (h) was 6.31 µM; at PLK3 (h), over 10 µM; in the assay on HCT-116, over 10 µM; in the assay on A2780 it was over 10 µM; on PLK2 (h), over 10 µM; with MDA-MB-231, over 10 µM. In addition, the IC50 at AuroraB (h), on CDK4/CyclinD1 (h) and at GSK3β (h) was over 10 µM each time.

Take `O=C(NC1CCOCC1)c1ccc2cc1CN1CCC[C@H]1C(=O)NCc1cccc(c1)-c1ccnc(n1)N2` [Compound 46]: the IC50 was 0.427 µM at PLK4 (h); over 10 µM on PLK3 (h); 2.24 µM in the assay with HCT-116; 5.5 µM in the assay with A2780; over 10 µM at PLK2 (h); over 10 µM in the assay on MDA-MB-231. Further, the figures for the IC50 on AuroraB (h), on CDK4/CyclinD1 (h) and on GSK3β (h) were over 10 µM, 5.75 µM and 0.204 µM, respectively.

With `COc1ccc2cc1CN(C)CCCNC(=O)CN1CCN(CC1)Cc1cc(cc(N3CCOCC3)c1)Nc1nccc-2n1` [Compound 141], the IC50 at PLK4 (h) is 3.02 µM; on PLK3 (h), over 10 µM; in the assay on HCT-116, 2.29 µM; in the assay on A2780, 8.91 µM; on PLK2 (h), over 10 µM; in the assay with MDA-MB-231, over 10 µM. Also, the IC50 at AuroraB (h), on CDK4/CyclinD1 (h) and on GSK3β (h) was over 10 µM each time.
